Data set [1] concerns the target Protein phosphatase 3 catalytic subunit alpha (Homo sapiens, UniProt Q08209). Also on record: species or system Escherichia coli.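 Also: inhibition of calcineurin (PP2B) enzyme activity, measured with DiFMUP as the substrate; in other assays of this panel Not Active means under 50% inhibition at 10 µM.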
The nature of data set [2]: DRUGMATRIX: Potassium Channel [KATP] radioligand binding (ligand: [3H] Glyburide). It counts as cell membranes, Membrane. To be noted: hit-t15; Not Active = under 50% inhibition at 10 µM.
A short description of data set [3]: DRUGMATRIX: GABAA, Chloride Channel, TBOB radioligand binding (ligand: [3H] TBOB). The data set is classed as cell membranes, Rattus norvegicus, Wistar, Cerebral cortex, Membrane. To be noted: Not Active = under 50% inhibition at 10 µM.
The target in data set [4] is T1, Alpha-2C adrenergic receptor (Homo sapiens, UniProt P18825).
T1 sequence (P18825 whole entry): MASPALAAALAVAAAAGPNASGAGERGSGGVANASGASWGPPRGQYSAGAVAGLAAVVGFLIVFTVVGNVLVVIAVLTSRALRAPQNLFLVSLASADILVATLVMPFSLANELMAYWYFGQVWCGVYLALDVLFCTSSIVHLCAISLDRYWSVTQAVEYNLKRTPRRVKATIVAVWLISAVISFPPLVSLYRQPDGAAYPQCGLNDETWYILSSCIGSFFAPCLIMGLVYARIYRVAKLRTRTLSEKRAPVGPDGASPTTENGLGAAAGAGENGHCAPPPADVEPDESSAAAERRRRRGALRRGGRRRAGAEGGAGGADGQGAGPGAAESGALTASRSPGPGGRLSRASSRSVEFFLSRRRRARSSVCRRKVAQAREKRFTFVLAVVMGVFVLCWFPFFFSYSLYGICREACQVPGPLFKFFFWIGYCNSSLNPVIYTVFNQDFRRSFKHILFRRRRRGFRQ
Briefly: DRUGMATRIX: Adrenergic Alpha-2C radioligand binding (ligand: [3H] MK-912). It counts as cell membranes, Sf9, Membrane. Particulars: for Ki: read-out: Ki.

The target of data set [5] is Glycine receptor (Rattus norvegicus, UniProt P22771+P24524+P07727+P20781). The data set is classed as cell membranes, Wistar, Spinal cord, Membrane. Also: in other assays of this panel Not Active means under 50% inhibition at 10 µM.
For data set [6], the target named is Mu-type opioid receptor (Homo sapiens, UniProt P35372). As to the kind of experiment: DRUGMATRIX: Opiate mu (OP3, MOP) radioligand binding (ligand: [3H] Diprenorphine). It counts as cell membranes, CHO-K1, Membrane. To be noted: Not Active = under 50% inhibition at 10 µM.
Sequence of Mu-type opioid receptor (P35372 whole entry): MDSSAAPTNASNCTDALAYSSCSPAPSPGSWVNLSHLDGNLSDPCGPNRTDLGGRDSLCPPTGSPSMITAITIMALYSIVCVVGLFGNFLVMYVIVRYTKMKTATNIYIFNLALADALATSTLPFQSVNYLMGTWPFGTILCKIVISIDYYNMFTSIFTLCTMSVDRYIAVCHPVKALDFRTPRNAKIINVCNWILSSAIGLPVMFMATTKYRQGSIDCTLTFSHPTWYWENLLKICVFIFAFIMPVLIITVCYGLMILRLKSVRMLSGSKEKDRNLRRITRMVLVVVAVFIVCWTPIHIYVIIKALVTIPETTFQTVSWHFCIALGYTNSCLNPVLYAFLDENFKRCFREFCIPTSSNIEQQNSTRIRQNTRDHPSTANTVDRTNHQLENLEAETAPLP
Data set [7] deals with Cytochrome P450 2E1 (Homo sapiens, UniProt P05181). To be noted: bti-tn-5b1-4.
Sequence of Cytochrome P450 2E1 (P05181 whole entry): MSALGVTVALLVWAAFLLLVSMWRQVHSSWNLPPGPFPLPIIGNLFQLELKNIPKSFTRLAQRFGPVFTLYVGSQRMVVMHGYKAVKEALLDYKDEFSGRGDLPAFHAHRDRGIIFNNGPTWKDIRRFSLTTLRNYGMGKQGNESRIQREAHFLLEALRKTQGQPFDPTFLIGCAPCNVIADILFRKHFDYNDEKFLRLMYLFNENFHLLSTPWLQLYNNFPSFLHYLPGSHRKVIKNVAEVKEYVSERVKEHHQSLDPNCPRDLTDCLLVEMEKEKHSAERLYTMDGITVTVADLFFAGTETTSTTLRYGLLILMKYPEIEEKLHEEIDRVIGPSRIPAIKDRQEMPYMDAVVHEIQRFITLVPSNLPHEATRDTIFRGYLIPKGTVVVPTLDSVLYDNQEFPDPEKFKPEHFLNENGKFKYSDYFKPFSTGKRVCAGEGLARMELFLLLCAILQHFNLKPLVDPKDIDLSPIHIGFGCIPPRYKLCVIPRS
The target of data set [8] is T2, Cytochrome P450 2A6 (Homo sapiens, UniProt P11509). Also: in other assays of this panel Not Active means under 50% inhibition at 10 µM.
T2 sequence (P11509 whole entry): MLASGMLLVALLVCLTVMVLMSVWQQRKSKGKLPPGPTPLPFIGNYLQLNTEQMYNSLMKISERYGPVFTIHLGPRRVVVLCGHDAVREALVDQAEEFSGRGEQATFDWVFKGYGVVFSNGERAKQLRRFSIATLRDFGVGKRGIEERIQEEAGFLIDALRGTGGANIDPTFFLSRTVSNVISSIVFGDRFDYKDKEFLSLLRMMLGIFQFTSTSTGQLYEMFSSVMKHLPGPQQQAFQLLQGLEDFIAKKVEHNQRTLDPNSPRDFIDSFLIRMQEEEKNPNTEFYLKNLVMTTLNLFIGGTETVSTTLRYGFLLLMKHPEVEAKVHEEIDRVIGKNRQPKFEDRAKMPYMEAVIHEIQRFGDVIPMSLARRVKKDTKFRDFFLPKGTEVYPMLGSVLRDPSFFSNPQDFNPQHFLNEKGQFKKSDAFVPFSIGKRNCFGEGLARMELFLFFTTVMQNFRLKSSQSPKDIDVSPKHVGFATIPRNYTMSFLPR
Particulars: bti-tn-5b1-4.

Broadly, the IC50 is the concentration that inhibits the measured activity by half. As a reminder, the Ki is the dissociation constant of the complex between target and ligand, obtained from inhibition or displacement. For the compound `CNCCCN1c2ccccc2CCc2ccccc21` [DESIPRAMINE], the IC50 result in data set [1], in data set [2], in data set [3], in data set [4] (sf9), in data set [5] and in data set [6] (cho-k1) was “Not Active” throughout. The IC50 entry in data set [7] and in data set [8] was “Not Active” each time. The Ki result in data set [2], in data set [3], in data set [7] and in data set [8] was “Not Active” throughout.
As to `Cc1ccccc1N1C(=O)c2cc(S(N)(=O)=O)c(Cl)cc2NC1C` (centres undefined) [METOLAZONE], the IC50 entry in data set [1], in data set [2], in data set [3], in data set [4] (sf9), in data set [5] and in data set [6] (cho-k1) was “Not Active” in each case. The IC50 result in data set [7] and in data set [8] was “Not Active” in each case. The Ki result in data set [2], in data set [3], in data set [7] and in data set [8] was “Not Active” in each case.
Consider `C1CCC(C(CC2CCCCN2)C2CCCCC2)CC1` (centres undefined) [PERHEXILINE], for which the IC50 entry in data set [1], in data set [2], in data set [3], in data set [4] (sf9), in data set [5] and in data set [6] (cho-k1) was “Not Active” in each case. Moreover, the IC50 entry in data set [7] and in data set [8] was “Not Active” throughout. Also, the Ki result in data set [2], in data set [3], in data set [7] and in data set [8] was “Not Active” in each case.
For `CC(C)CN(C[C@@H](O)[C@H](Cc1ccccc1)NC(=O)O[C@H]1CCOC1)S(=O)(=O)c1ccc(N)cc1`, the IC50 result in data set [1], in data set [2], in data set [3], in data set [4] (sf9), in data set [5] and in data set [6] (cho-k1) was “Not Active” in each case. Also, the IC50 result in data set [7] and in data set [8] was “Not Active” in each case. The Ki entry in data set [2], in data set [3], in data set [7] and in data set [8] was “Not Active” in each case.
Regarding `O=c1[nH]c(=O)n([C@H]2C[C@H](O)[C@@H](CO)O2)cc1I` [IDOXURIDINE], the IC50 entry in data set [1], in data set [2], in data set [3], in data set [4] (sf9), in data set [5] and in data set [6] (cho-k1) was “Not Active” each time. The IC50 entry in data set [7] and in data set [8] was “Not Active” each time. The Ki entry in data set [2], in data set [3], in data set [7] and in data set [8] was “Not Active” in each case.
Turning to `C[C@H](CCC(=O)O)[C@H]1CC[C@H]2[C@@H]3[C@H](O)C[C@@H]4C[C@H](O)CC[C@]4(C)[C@H]3C[C@H](O)[C@]12C` [CHOLIC ACID], the IC50 entry in data set [1], in data set [2], in data set [3], in data set [4] (sf9), in data set [5] and in data set [6] (cho-k1) was “Not Active” in each case. The IC50 result in data set [7] and in data set [8] was “Not Active” each time. Further, the Ki entry in data set [2], in data set [3], in data set [7] and in data set [8] was “Not Active” in each case.
In the case of `O=C(CCCN1CC=C(n2c(=O)[nH]c3ccccc32)CC1)c1ccc(F)cc1` [DROPERIDOL], the IC50 result is “Not Active” in data set [1]; “Not Active” in data set [2]; “Not Active” in data set [3]; 1760 nM in data set [4] (read-out: IC50); “Not Active” in data set [5]; “Not Active” in data set [6] (cho-k1). Also, the IC50 entry in data set [7] and in data set [8] was “Not Active” in each case. The Ki result is “Not Active” in data set [2]; “Not Active” in data set [3]; 256 nM in data set [4]; “Not Active” in data set [7]; “Not Active” in data set [8].
Turning to `CC(=O)O[C@@]12CO[C@@H]1C[C@H](O)[C@@]1(C)C(=O)[C@H](O)C3=C(C)[C@@H](OC(=O)[C@H](O)[C@@H](NC(=O)OC(C)(C)C)c4ccccc4)C[C@@](O)([C@@H](OC(=O)c4ccccc4)[C@H]21)C3(C)C.O.O.O` [DOCETAXEL], the IC50 entry in data set [1], in data set [2], in data set [3], in data set [4] (sf9), in data set [5] and in data set [6] (cho-k1) was “Not Active” each time. Besides, the IC50 entry in data set [7] and in data set [8] was “Not Active” in each case. In addition, the Ki entry in data set [2], in data set [3], in data set [7] and in data set [8] was “Not Active” throughout.
As to `C[C@H]1c2cccc(O)c2C(=O)C2=C(O)[C@]3(O)C(=O)C(C(N)=O)=C(O)[C@@H](N(C)C)[C@@H]3[C@@H](O)[C@@H]21.O` [DOXYCYCLINE], the half-maximal inhibitory concentration (IC50) entry in data set [1], in data set [2], in data set [3], in data set [4] (sf9), in data set [5] and in data set [6] (cho-k1) was “Not Active” in each case. In addition, the IC50 result in data set [7] and in data set [8] was “Not Active” in each case. Further, the Ki entry in data set [2], in data set [3], in data set [7] and in data set [8] was “Not Active” each time.
Turning to `CC(C)[C@@]1(NC(=O)[C@@H]2C[C@@H]3c4cccc5[nH]cc(c45)C[C@H]3N(C)C2)O[C@@]2(O)[C@@H]3CCCN3C(=O)[C@H](Cc3ccccc3)N2C1=O.CS(=O)(=O)O` [DIHYDROERGOCRISTINE MESYLATE], the IC50 result was “Not Active” in data set [1]; “Not Active” in data set [2]; “Not Active” in data set [3]; 8.65 nM in data set [4] (read-out: IC50); “Not Active” in data set [5]; 850 nM in data set [6] (read-out: IC50). In addition, the IC50 entry in data set [7] and in data set [8] was “Not Active” in each case. The Ki entry in data set [2] is “Not Active”; in data set [3], “Not Active”; in data set [4], 1.26 nM; in data set [6], 345 nM; in data set [7] it was “Not Active”; in data set [8], “Not Active”.
Consider `NCCCCCC(=O)O` [AMINOCAPROIC ACID], for which the 50% inhibitory concentration (IC50) result in data set [1], in data set [2], in data set [3], in data set [4] (sf9), in data set [5] and in data set [6] (cho-k1) was “Not Active” in each case. The IC50 entry in data set [7] and in data set [8] was “Not Active” in each case. Further, the Ki entry in data set [2], in data set [3], in data set [7] and in data set [8] was “Not Active” each time.
For the compound `CCC(C)n1ncn(-c2ccc(N3CCN(c4ccc(OCC5COC(Cn6cncn6)(c6ccc(Cl)cc6Cl)O5)cc4)CC3)cc2)c1=O` (centres undefined) [ITRACONAZOLE], the IC50 entry in data set [1], in data set [2], in data set [3], in data set [4] (sf9), in data set [5] and in data set [6] (cho-k1) was “Not Active” throughout. Moreover, the half-inhibitory concentration (IC50) result in data set [7] and in data set [8] was “Not Active” each time. In addition, the Ki entry in data set [2], in data set [3], in data set [7] and in data set [8] was “Not Active” in each case.
With `Cc1c(C)c2c(c(C)c1O)CC[C@@](C)(CCC[C@H](C)CCC[C@H](C)CCCC(C)C)O2` [ALPHA-TOCOPHEROL], the IC50 result in data set [1], in data set [2], in data set [3], in data set [4] (sf9), in data set [5] and in data set [6] (cho-k1) was “Not Active” each time. Also, the IC50 result in data set [7] and in data set [8] was “Not Active” each time. The Ki result in data set [2], in data set [3], in data set [7] and in data set [8] was “Not Active” each time.

The values above are taken from ChEMBL document CHEMBL1909046, “DrugMatrix in vitro pharmacology data”.
